The text below walks through data of patent publication US20260069581A1, “METHODS AND COMPOSITIONS FOR CANCER THERAPY” (OHIO STATE INNOVATION FOUNDATION, priority 2020, published 2026).

One test deals with Kasumi-1 cells. Nature of the test: MTS cell viability of shRNA-stable Kasumi-1 cells treated with KPT-9274. Type of test: cell-based. Conditions: Kasumi-1 scrambled control, 24 hour KPT-9274 treatment. The source says:
FIGS. 2A-2M show show representative data for genetic depletion of HDAC8 or SIRT6 increases vulnerability of AML cell lines to KPT-9274 treatment. FIGS. 2A-2D show data for knockout efficiency of CDS- and 3′UTR-targeting shRNAs in MOLM13 and Kasumi-1 cells as assessed with Western blotting (FIGS. 2A, 2D) with GAPDH as a loading control. Densitometric quantification of protein band intensity is shown (n=2) in FIGS. 2B, 2E. FIGS. 2E-2H show representative data for depletion of HDAC8 or SIRT6 (as indicated in graphs) and sensitization of AML cell lines to KPT-9274 treatment. Dose-response curves of shRNA-stable MOLM13 and Kasumi-1 cells for 24-hour and 48-hour treatments are plotted. Cell viability was measured with MTS. […] Scrambled or gene-targeting shRNA-stable MOLM13 or Kasumi-1 cells were treated with IC20 dose of KPT-9274 for 48 hour and stained with Annexin/PI for flow cytometry analysis. Data are shown as mean±SEM of % population from duplicates. […] Quantification of the number of colonies formed by shRNA-stable Kasumi-1 and MOLM13 cells in the presence or absence of KPT-9274 in CFU assays. Indicated number of cells were seeded into Methocult and colonies were counted and replated by a double-blind approach after 7 days. […]
MTS assay. […] Plates were read by using a BioTek synergy H4 hybrid multimode microplate reader (Thermo Fisher Scientific) at 490 nM. […]

The next test relates to PARP1. Nature of the test: co-IP and western blotting of PARP1 mono-ADP-ribosylation. Type of test: cell-based. Conditions: eradicated by knockdown of SIRT6. The procedure:
(§1) Thereafter, cells were fixed, permeabilized and stained with BV421 mouse anti-H2A.X (pS139) (Clone N1-431). Stained cells were analyzed by flow cytometry. Results are shown as mean±SEM of duplicates. *p<0.05. N.S.: not significant. […] Results are shown as mean±SEM of duplicates. *p<0.05. […] MOLM13 cells were treated with vehicle control, 0.4 μM or 0.8 μM AR-42 alone, 0.1 μM or 0.25 μM KPT-2974 alone and drug combination for 24 hours before being subject to Western blotting analysis of HR, NHEJ and ATM markers. GAPDH served as loading control. Results are representative of two independent experiments. In the FIG. the treatment concentrations, protein detected in the given Western blot, and molecular weight of the protein detected are as shown in the figure. […] Scrambled or shHDAC8-transduced MOLM13 cells were treated with vehicle, 0.1 μM or 0.25 μM KPT-2974 before being subject to immunoblotting analysis of DNA repair targets. GAPDH serves as loading control. Results are representative of two independent experiments. In the FIG. the treatment concentrations, protein detected in the given Western blot, and molecular weight of the protein detected are as shown in the figure. […] PAPR1 was immunoprecipitated and mono-ADP-ribosylation was detected by western blotting. […]
(§2) To elucidate the mechanism of the synergism between shSIRT6 and KPT-9274, the accumulation of phosph-H2A.X was measured. […]

Another test concerns SIRT6-depleted cells. Nature of the test: Phospho-H2A.X staining in shSIRT6 cells with KPT-9274. Type of test: cell-based. Conditions: SIRT6-depleted cells compared with scrambled control, in the presence of KPT-9274. The procedure:
as §1, §2

In test [1] the test system is MOLM13 and Kasumi-1 cell lines. Nature of the test: Annexin/PI flow cytometry apoptosis of shRNA-stable cells treated with KPT-9274. Type of test: cell-based, human. As to conditions: KPT-9274 at sublethal IC20 dose, 48 hour. The source says:
FIGS. 2A-2M show show representative data for genetic depletion of HDAC8 or SIRT6 increases vulnerability of AML cell lines to KPT-9274 treatment. FIGS. 2A-2D show data for knockout efficiency of CDS- and 3′UTR-targeting shRNAs in MOLM13 and Kasumi-1 cells as assessed with Western blotting (FIGS. 2A, 2D) with GAPDH as a loading control. Densitometric quantification of protein band intensity is shown (n=2) in FIGS. 2B, 2E. FIGS. 2E-2H show representative data for depletion of HDAC8 or SIRT6 (as indicated in graphs) and sensitization of AML cell lines to KPT-9274 treatment. Dose-response curves of shRNA-stable MOLM13 and Kasumi-1 cells for 24-hour and 48-hour treatments are plotted. Cell viability was measured with MTS. […] Scrambled or gene-targeting shRNA-stable MOLM13 or Kasumi-1 cells were treated with IC20 dose of KPT-9274 for 48 hour and stained with Annexin/PI for flow cytometry analysis. Data are shown as mean±SEM of % population from duplicates. FIGS. 2K-2L show representative data that KPT-9274 attenuates AML self-renewal and induces myeloid differentiation in HDAC8 or SIRT6-depleted cells. Quantification of the number of colonies formed by shRNA-stable Kasumi-1 and MOLM13 cells in the presence or absence of KPT-9274 in CFU assays. Indicated number of cells were seeded into Methocult and colonies were counted and replated by a double-blind approach after 7 days. […]
For orientation: A flow cytometer gives signals particle by particle.

In the next test the test system is MOLM13 cells. In words: MTS cell viability of shRNA-stable or sgRNA-transfected MOLM13 cells treated with KPT-9274. Type of test: cell-based, human. Conditions: MOLM13, 48-hour treatment. The procedure:
FIGS. 7A-7B show representative data for knockdown of selected genes has modest effects on MOLM13 responses to KPT-9274 treatment. […] For the graphs in FIGS. 7A-7B, the responses of parental, shRNA-stable and sgRNA-transfected MOLM13 cells to KPT-9274 treatment (48-hour treatments) are plotted. Cell viability was measured with MTS (y-axis). Results are shown as mean±SEM of 4 technical replicates and 3 biological replicates. Western blotting for knockdown efficiency is shown.
MTS assay. For MTS assays, AML cell lines or patient-derived cells were treated in a 96-well plate at 1-6×10^5 cells per well for 24-72 hours. Patient-derived CD34^+ primary cells were cultured in 96-well plates coated with collagen in the presence of 10 ng/ml IL-3, 10 ng/ml IL-6, 10 ng/ml SCF and 10 ng/ml GM-CSF. Cells were treated with increasing concentrations of KPT-9274 (0 nM to 10 μM) or vehicle control (dimethyl sulfoxide [DMSO]). […] MTS [3-(4,5-dimethylthiazol-2-yl)-5-(3-carboxymethoxyphenyl)-2-(4-sulfophenyl)-2H-tetrazolium](Pro-mega, Madison, WI) was incubated with drug-treated cells according to the manufacturer's instructions. Plates were read by using a BioTek synergy H4 hybrid multimode microplate reader (Thermo Fisher Scientific) at 490 nM. […]

SMILES strings stand for the structures.

On to `Nc1ccc(/C=C/C(=O)NCc2cc3cc(-c4ccc(C(=O)N5CCC(F)(F)CC5)cc4)cc(-c4ccc(F)cc4)c3o2)cn1` [KPT-9274, (E)-3-(6-aminopyridin-3-yl)-N-[[5-[4-(4,4-difluoropiperidine-1-carbonyl)phenyl]-7-(4-fluorophenyl)-1-benzofuran-2-yl]methyl]prop-2-enamide], for which the IC50 entry in the test on Kasumi-1 cells is recorded as “did not achieve IC50”. In addition, in the test with PARP1, the “mono-ADP-ribosylation of PARP1” value was “enhanced”. For the same compound, the “DNA damage, phospho-H2A.X staining” value in the test on SIRT6-depleted cells was “increased phospho-H2A.X staining”. Moreover, in test [1] (HDAC8 depletion), the “percentage of apoptotic cells” value is “significantly increase”. In addition, in test [1] (SIRT6 depletion), the “apoptosis of AML cells” value is recorded as “enhance apoptosis”. In addition, the “synergy of knockdown of IMPA2, HEXA, PTGS1 and DCPS with KPT-9274 treatment” value with MOLM13 cells (MTS (FIG. 7A)) is “did not demonstrate strong synergies”. The “impact of depletion of HDAC1, HDAC3 or HDAC6 with CRISPR on KPT-9274 sensitivity” value with MOLM13 cells (MTS (FIG. 7B)) is on record as “did not have significant impact”.
